# Assay results as given in patent publication US4575487A, “Method for determination of transglucosidase” (Miles Laboratories, Inc., priority 1983, dated 1986).
# Assays:
# amylolytic enzymes = details: J. Jap. Soc. Starch Sci., 27, 114-119 (1980); cited from earlier work
# glucoamylase = glucoamylase (Aspergillus niger, UniProt P69328); experiment: Effect of acarbose on glucoamylase activity (remaining activity with maltose); assay type: biochemical; details: for Inhibition (%) glucoamylase: one unit of glucoamylase
# Source text: (§1) A particularly effective, selective inhibitor is acarbose which is identified by J. Jap. Soc. […] The difference in the effect of acarbose on glucoamylase and transglucosidase has led to the development of a sensitive assay for transglucosidase in the presence of glucoamylase. To determine the level of acarbose needed to inhibit glucoamylase completely, purified glucoamylase equivalent to one DU (the amount that liberates one gram of reducing sugar per hour under the conditions of the assay published in U.S. Pat. No. 3,249,514) is treated with graded amounts of acarbose and the remaining activity measured by incubation with maltose under appropriate conditions, for example, at pH 4.2 and 37° C. with a maltose concentration of 10%. The extent of inhibition of glucoamylase activity is increased with increasing concentrations of acarbose up to 50 μg acarbose per DU enzyme and above, such concentrations causing 100% inhibition. In order to determine the effect of acarbose on TG activity, glucoamylase (one DU) containing TG (40 TG units, vide infra) was treated with different concentrations of acarbose and then incubated with maltose (10%), at pH 4.8, and 37° C. for one hour. The enzyme reaction was then terminated by heating the reaction mixture in a boiling water bath for 15 minutes and transglucosidase activity was determined by measuring, using liquid chromatography, the amount of panose produced during the reaction period. […] In these experiments, panose was routinely measured by a high pressure liquid chromatography procedure which separated this compound from glucose and maltose. Alternative procedures for specific determination of panose can be used equally well.
# (§2) It is recognized that the inhibition of glucoamylase or acarbose and the measurement of transglucosidase activity may equally well be conducted under different conditions. In order to work at such alternative conditions, it is necessary to determine the effect of a range of acarbose concentrations under the conditions selected, and in this way to identify a level of acarbose sufficient to give complete inhibition of glucoamylase without inhibiting transglucosidase activity.
# ^a one unit of glucoamylase was present in the reaction mixture.
# transglucosidase = transglucosidase (Aspergillus niger, UniProt P56526); experiment: Effect of acarbose on transglucosidase activity (panose produced from maltose, in presence of glucoamylase); assay type: biochemical; details: for amount of panose produced: maltose 10%, pH 4.8, 37° C., one hour; for Inhibition (%) transglucosidase: 40 units of transglucosidase
# Source text: as §1, §2
# ^b 40 units of transglucosidase were present in the reaction mixture.
# [1] = acarbose 1.25 μg/DU glucoamylase
# [2] = acarbose 2.5 μg/DU glucoamylase
# [3] = acarbose 100 μg/DU glucoamylase
# [4] = acarbose 200 μg/DU glucoamylase
# [5] = acarbose 300 μg/DU glucoamylase
# [6] = acarbose 400 μg/DU glucoamylase
# [7] = acarbose 500 μg/DU glucoamylase
# [8] = acarbose 600 μg/DU glucoamylase
# [9] = acarbose 800 μg/DU glucoamylase
# [10] = acarbose 1000 μg/DU glucoamylase
# [11] = acarbose 2000 μg/DU glucoamylase
# transglucosidase, sequence (P56526 26-266): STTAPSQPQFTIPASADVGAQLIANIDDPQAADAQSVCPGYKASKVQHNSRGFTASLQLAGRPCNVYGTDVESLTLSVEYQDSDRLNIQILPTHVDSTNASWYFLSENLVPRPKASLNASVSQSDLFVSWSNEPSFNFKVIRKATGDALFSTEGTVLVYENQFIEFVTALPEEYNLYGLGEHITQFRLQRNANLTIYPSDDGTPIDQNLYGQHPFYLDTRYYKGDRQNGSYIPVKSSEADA
# transglucosidase, sequence (P56526 267-985): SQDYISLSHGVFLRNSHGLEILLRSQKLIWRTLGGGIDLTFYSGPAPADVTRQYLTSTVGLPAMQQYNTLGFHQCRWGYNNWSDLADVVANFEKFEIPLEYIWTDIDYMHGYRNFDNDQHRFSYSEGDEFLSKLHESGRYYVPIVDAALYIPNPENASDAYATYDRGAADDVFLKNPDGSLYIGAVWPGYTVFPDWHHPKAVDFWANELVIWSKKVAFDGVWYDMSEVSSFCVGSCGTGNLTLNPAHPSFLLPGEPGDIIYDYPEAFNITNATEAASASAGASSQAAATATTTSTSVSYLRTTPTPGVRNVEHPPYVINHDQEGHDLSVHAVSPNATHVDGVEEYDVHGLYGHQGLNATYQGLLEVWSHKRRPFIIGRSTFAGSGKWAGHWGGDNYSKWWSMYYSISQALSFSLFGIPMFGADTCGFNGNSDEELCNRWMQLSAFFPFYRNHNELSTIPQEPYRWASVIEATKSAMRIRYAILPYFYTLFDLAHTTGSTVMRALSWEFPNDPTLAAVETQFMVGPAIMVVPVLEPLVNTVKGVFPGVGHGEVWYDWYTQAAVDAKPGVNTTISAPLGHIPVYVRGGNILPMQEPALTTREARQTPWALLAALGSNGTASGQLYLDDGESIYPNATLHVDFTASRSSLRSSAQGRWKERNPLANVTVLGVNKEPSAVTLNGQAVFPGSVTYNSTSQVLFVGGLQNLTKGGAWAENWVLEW
# glucoamylase, sequence (P69328 25-640): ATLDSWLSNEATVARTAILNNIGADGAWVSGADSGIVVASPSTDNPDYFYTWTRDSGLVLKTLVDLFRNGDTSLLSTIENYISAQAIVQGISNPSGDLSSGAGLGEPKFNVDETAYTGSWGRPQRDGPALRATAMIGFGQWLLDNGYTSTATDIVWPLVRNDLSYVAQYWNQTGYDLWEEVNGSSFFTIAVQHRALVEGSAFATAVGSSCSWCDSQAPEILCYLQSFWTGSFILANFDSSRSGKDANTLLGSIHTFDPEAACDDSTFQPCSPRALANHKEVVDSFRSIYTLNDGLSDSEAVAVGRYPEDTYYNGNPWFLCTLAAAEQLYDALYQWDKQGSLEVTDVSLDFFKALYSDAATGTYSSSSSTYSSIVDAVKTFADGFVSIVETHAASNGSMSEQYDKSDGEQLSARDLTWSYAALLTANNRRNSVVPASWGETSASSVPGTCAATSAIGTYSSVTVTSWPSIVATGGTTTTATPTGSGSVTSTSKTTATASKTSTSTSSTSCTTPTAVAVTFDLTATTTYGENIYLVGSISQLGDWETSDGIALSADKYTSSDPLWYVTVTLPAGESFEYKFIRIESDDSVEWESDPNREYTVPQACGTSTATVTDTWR
structure (smiles),measurement,setting,value
C[C@H]1O[C@H](O[C@H]2[C@H](O)[C@@H](O)[C@@H](O[C@H]3[C@H](O)[C@@H](O)C(O)O[C@@H]3CO)O[C@@H]2CO)[C@H](O)[C@@H](O)[C@@H]1N[C@H]1C=C(CO)[C@@H](O)[C@H](O)[C@H]1O (stereo partly shown) [acarbose],inhibition of amylolytic enzymes,amylolytic enzymes,inhibitor of amylolytic enzymes
same,inhibition of glucoamylase activity,"glucoamylase; 50 μg acarbose per DU enzyme and above, maltose 10%, pH 4.2, 37° C.",100%
same,Inhibition (%) glucoamylase,glucoamylase; [1],23%
same,Inhibition (%) glucoamylase,glucoamylase; [2],36%
same,Inhibition (%) glucoamylase,glucoamylase; acarbose 5 μg/DU glucoamylase,65%
same,Inhibition (%) glucoamylase,glucoamylase; acarbose 10 μg/DU glucoamylase,86%
same,Inhibition (%) glucoamylase,glucoamylase; acarbose 15 μg/DU glucoamylase,91%
same,Inhibition (%) glucoamylase,glucoamylase; acarbose 20 μg/DU glucoamylase,95%
same,Inhibition (%) glucoamylase,glucoamylase; acarbose 30 μg/DU glucoamylase,97%
same,Inhibition (%) glucoamylase,glucoamylase; acarbose 40 μg/DU glucoamylase,98%
same,Inhibition (%) glucoamylase,glucoamylase; acarbose 50 μg/DU glucoamylase,100%
same,Inhibition (%) glucoamylase,glucoamylase; [3],100%
same,Inhibition (%) glucoamylase,glucoamylase; [4],100%
same,Inhibition (%) glucoamylase,glucoamylase; [5],100%
same,Inhibition (%) glucoamylase,glucoamylase; [6],100%
same,Inhibition (%) glucoamylase,glucoamylase; [7],100%
same,Inhibition (%) glucoamylase,glucoamylase; [8],100%
same,Inhibition (%) glucoamylase,glucoamylase; [9],100%
same,Inhibition (%) glucoamylase,glucoamylase; [10],100%
same,Inhibition (%) glucoamylase,glucoamylase; [11],100%
same,inhibition of glucoamylase activity,glucoamylase; acarbose 50-500 μg/DU,completely inhibited
same,amount of panose produced,transglucosidase; above 50 up to 500 μg acarbose per DU of glucoamylase,remained constant
same,Inhibition (%) transglucosidase,transglucosidase; [1],0%
same,Inhibition (%) transglucosidase,transglucosidase; [2],0%
same,Inhibition (%) transglucosidase,transglucosidase; acarbose 5 μg/DU glucoamylase,0%
same,Inhibition (%) transglucosidase,transglucosidase; acarbose 10 μg/DU glucoamylase,0%
same,Inhibition (%) transglucosidase,transglucosidase; acarbose 15 μg/DU glucoamylase,0%
same,Inhibition (%) transglucosidase,transglucosidase; acarbose 20 μg/DU glucoamylase,0%
same,Inhibition (%) transglucosidase,transglucosidase; acarbose 30 μg/DU glucoamylase,0%
same,Inhibition (%) transglucosidase,transglucosidase; acarbose 40 μg/DU glucoamylase,0%
same,Inhibition (%) transglucosidase,transglucosidase; acarbose 50 μg/DU glucoamylase,0%
same,Inhibition (%) transglucosidase,transglucosidase; [3],0%
same,Inhibition (%) transglucosidase,transglucosidase; [4],0%
same,Inhibition (%) transglucosidase,transglucosidase; [5],0%
same,Inhibition (%) transglucosidase,transglucosidase; [6],0%
same,Inhibition (%) transglucosidase,transglucosidase; [7],0%
same,Inhibition (%) transglucosidase,transglucosidase; [8],6%
same,Inhibition (%) transglucosidase,transglucosidase; [9],8%
same,Inhibition (%) transglucosidase,transglucosidase; [10],12%
same,Inhibition (%) transglucosidase,transglucosidase; [11],23%
same,inhibition of transglucosidase activity,transglucosidase; acarbose 50-500 μg/DU,without there being any inhibition of transglucosidase activity
same,amount of panose produced,transglucosidase; acarbose exceeding 500 μg/DU glucoamylase,"steady decrease in the amount of panose produced, indicating inhibition of TG"
same,amount of panose produced,transglucosidase; up to 50 μg acarbose per DU of glucoamylase,increased with increasing levels of acarbose
